According to ChEMBL document CHEMBL3751674, “Synthesis, antimicrobial activity of Schiff base compounds of cinnamaldehyde and amino acids” (2016):

How the values were obtained:
Type in all cases: functional
Details in all cases: read-out: DIZ
Penicillium citrinum [1] = assay: Antifungal activity against Penicillium citrinum at 0.25 mol/L after 2 to 4 days by paper disc method
Staphylococcus aureus [2] = assay: Antibacterial activity against Staphylococcus aureus at 0.13 mol/L after 12 to 24 hrs by paper disc method
Penicillium citrinum [3] = assay: Antifungal activity against Penicillium citrinum at 0.06 mol/L after 2 to 4 days by paper disc method
Escherichia coli [4] = assay: Antibacterial activity against Escherichia coli at 0.13 mol/L after 12 to 24 hrs by paper disc method
Escherichia coli [5] = assay: Antibacterial activity against Escherichia coli at 0.25 mol/L after 12 to 24 hrs by paper disc method
Escherichia coli [6] = assay: Antibacterial activity against Escherichia coli at 0.06 mol/L after 12 to 24 hrs by paper disc method
Staphylococcus aureus [7] = assay: Antibacterial activity against Staphylococcus aureus at 0.03 mol/L after 12 to 24 hrs by paper disc method
Staphylococcus aureus [8] = assay: Antibacterial activity against Staphylococcus aureus at 0.25 mol/L after 12 to 24 hrs by paper disc method
Aspergillus niger [9] = assay: Antifungal activity against Aspergillus niger at 0.03 mol/L after 2 to 4 days by paper disc method
Escherichia coli [10] = assay: Antibacterial activity against Escherichia coli at 0.03 mol/L after 12 to 24 hrs by paper disc method
Penicillium citrinum [11] = assay: Antifungal activity against Penicillium citrinum at 0.03 mol/L after 2 to 4 days by paper disc method
Staphylococcus aureus [12] = assay: Antibacterial activity against Staphylococcus aureus at 0.06 mol/L after 12 to 24 hrs by paper disc method
Aspergillus niger [13] = assay: Antifungal activity against Aspergillus niger at 0.13 mol/L after 2 to 4 days by paper disc method
Aspergillus niger [14] = assay: Antifungal activity against Aspergillus niger at 0.06 mol/L after 2 to 4 days by paper disc method
Penicillium citrinum [15] = assay: Antifungal activity against Penicillium citrinum at 0.13 mol/L after 2 to 4 days by paper disc method
Aspergillus niger [16] = assay: Antifungal activity against Aspergillus niger at 0.25 mol/L after 2 to 4 days by paper disc method

| Compound | zone of inhibition at 250000 µM (Penicillium citrinum [1]) [mm] | zone of inhibition at 130000 µM (Staphylococcus aureus [2]) [mm] | zone of inhibition at 60000 µM (Penicillium citrinum [3]) [mm] | zone of inhibition at 130000 µM (Escherichia coli [4]) [mm] | zone of inhibition at 250000 µM (Escherichia coli [5]) [mm] | zone of inhibition at 60000 µM (Escherichia coli [6]) [mm] | zone of inhibition at 30000 µM (Staphylococcus aureus [7]) [mm] | zone of inhibition at 250000 µM (Staphylococcus aureus [8]) [mm] | zone of inhibition at 30000 µM (Aspergillus niger [9]) [mm] | zone of inhibition at 30000 µM (Escherichia coli [10]) [mm] | zone of inhibition at 30000 µM (Penicillium citrinum [11]) [mm] | zone of inhibition at 60000 µM (Staphylococcus aureus [12]) [mm] | zone of inhibition at 130000 µM (Aspergillus niger [13]) [mm] | zone of inhibition at 60000 µM (Aspergillus niger [14]) [mm] | zone of inhibition at 130000 µM (Penicillium citrinum [15]) [mm] | zone of inhibition at 250000 µM (Aspergillus niger [16]) [mm] |
| --- | --- | --- | --- | --- | --- | --- | --- | --- | --- | --- | --- | --- | --- | --- | --- | --- |
| CC(/N=C/C=C/c1ccccc1)C(=O)O (configuration not stated) | 8 | 8 | 9.3 | 8 | 11 | 8 | 8 | 8 | 8 | 8 | 12.3 | 8 | 8.3 | 8 | 10.3 | 9.7 |
| COc1ccc(/C=C/C=N/CC(=O)O)cc1 | 21 | 8 | 8.7 | 8 | 13.5 | 8 | 8 | 8.7 | 11.3 | 8 | 11.5 | 9 | 17.7 | 8 | 11.7 | 23.3 |
| O=C(O)C[C@H](/N=C/C=C/c1ccc(Cl)cc1)C(=O)O | 32.3 | 18.3 | 25 | 12 | 25.2 | 13 | 9.2 | 30.3 | 14.3 | 8 | 24.5 | 8.5 | 15.7 | 19.3 | 23.3 | 29 |
| O=C(O)C/N=C/C=C/c1ccccc1 | 10.3 | 8 | 11 | 8 | 9.3 | 8 | 8 | 11.7 | 8 | 8 | 8 | 8 | 8.7 | 9 | 10.7 | 11 |
| COc1ccc(/C=C/C=N/C(C)C(=O)O)cc1 (configuration not stated) | 17.7 | 8.7 | 13.3 | 8 | 16.3 | 10 | 8 | 12.7 | 8 | 8 | 9 | 8 | 10.5 | 12.7 | 9.8 | 15.8 |
| COc1ccc(/C=C/C=N/[C@@H](CC(C)C)C(=O)O)cc1 | 17.7 | 8 | 10 | 14 | 13 | 9.3 | 9.7 | 10.8 | 9.7 | 8 | 12 | 8 | 16 | 10.5 | 12 | 19 |
| O=C(O)CC[C@H](/N=C/C=C/c1ccc(Cl)cc1)C(=O)O | 35 | 20 | 18.7 | 17.3 | 18.3 | 12 | 8.3 | 31 | 17.7 | 15.7 | 17 | 10.5 | 23.3 | 17.3 | 23 | 21 |
